Test system: A549
Test: Cytotoxicity against human A549 cells after 2 days by resazurin reduction assay
Conditions: A549, 48 h

| Compound | IC50 |
| --- | --- |
| CCC[C@H]1O[C@H](CC(=O)O)C[C@]23O[C@]12C(=O)c1c(O)cccc1[C@@H]3O | > 80 µM |
| CCC[C@H]1O[C@H](CC(=O)O)C[C@]23O[C@]12C(=O)c1c(O)cccc1C3=O [FRENOLICIN] | 5.77 µM |
| CCC[C@H]1O[C@H](CC(=O)O)C[C@@H]2C(=O)c3cccc(O)c3C(=O)[C@]21O | > 80 µM |
| CCC[C@H]1O[C@H](CC(=O)O)C[C@@]2(O)C(=O)c3cccc(O)c3C(=O)[C@@]12O | > 80 µM |
| CCC[C@H]1O[C@H](CC(=O)O)CC2=C1C(=O)c1c(O)cccc1C2=O [DEOXYFRENOLICIN] | 1.07 µM |
| CCC[C@H]1O[C@H](CC(=O)OC)[C@H](O)C2=C1C(=O)c1c(O)cccc1C2=O | 0.35 µM |
| CCC[C@H]1O[C@H](CC(=O)O)C[C@]2(O)C(=O)c3cccc(O)c3C(=O)[C@@]12O | > 80 µM |
| CCC[C@H]1O[C@H](CC(=O)O)C[C@]2(SC[C@H](NC(C)=O)C(=O)O)C(=O)c3cccc(O)c3C(=O)[C@@]12O | > 80 µM |
| CCC[C@H]1O[C@@H]2CC(=O)O[C@@H]2C2=C1C(=O)c1c(O)cccc1C2=O [FRENOLICIN B] | 0.28 µM |
